The source of these data is PMC8860572 (Nucleic Acids Research, 2022).

The structures appear in SMILES notation. Entries after “also recorded” stand apart in the source; their conditions may differ. Read-outs that look alike come from different tables or passages of the source.

One experiment has as its target nsp14–nsp10 (Severe acute respiratory syndrome coronavirus 2, UniProt P0DTD1). Type of experiment: binding, SARS-CoV-2. Particulars: for ΔTm: 1 µM nsp14-10; for effect on thermal stability / aggregation of nsp14–nsp10 (words): 3.1-100 µM compound.
Experiment [1] addresses SARS-CoV-2 nsp14–nsp10 RNase activity (Severe acute respiratory syndrome coronavirus 2, UniProt P0DTD1). Type of experiment: biochemical.
In experiment [2] the target is SARS-CoV-2 nsp14–nsp10 complex (nuclease activity) (Severe acute respiratory syndrome coronavirus 2, UniProt P0DTD1). The experiment in a line: biochemical. Particulars: for IC50 / IC50 value: 100 nM nsp14–nsp10, 10 nM 20-mer ssRNA, 37°C 45 min, approximate/preliminary; for inhibition of substrate digestion in gel-based assay: 100 nM nsp14–nsp10, compound up to 100 μM.

The subject of another experiment is SARS-CoV-2. Conditions: cited from earlier work.
For experiment [3], the target named is nsp14–nsp10 co-incubated with nsp8 (Severe acute respiratory syndrome coronavirus 2, UniProt P0DTD1). The experiment in a line: gel-based nuclease inhibition assay with nsp8 stimulation. Type of experiment: biochemical, SARS-CoV-2. Conditions: 100 nM nsp14-nsp10 and 300 nM nsp8, compound 3-100 μM.
The target of experiment [4] is guanine N7 methyl transferase (MTase) activity of nsp14–nsp10 (Severe acute respiratory syndrome coronavirus 2, UniProt P0DTD1). As to the kind of experiment: HTRF methyltransferase assay. Particulars: 2.5, 5 and 10 μM compound; 10 nM nsp14-nsp10, 5 μM SAM, 0.14 mM GP3G. Type of experiment: biochemical, SARS-CoV-2. (In general: TR-FRET usually uses a lanthanide donor and a delayed reading to cut background.)

[5] abbreviates: 125 nM (ions) or 250 nM (chelators) nsp14-nsp10, ions 0.05-10 mM, chelators 0.03-1 mM.
The mark [6] stands for this setting: Supplementary Table 2, in vitro inhibition of nsp14-nsp10 nuclease activity, result in words.

Broadly, the ΔTm is the shift of the melting midpoint relative to a reference. In general, IC50 refers to the concentration that gives 50% inhibition. Low values mean greater potency, high ones weaker potency.

With `O=c1[nH]c2ccccc2c(=O)n1O` [A-3], the thermal shift (ΔTm) was -0.10 °C at nsp14–nsp10 (3.1 µM compound); 0.13 °C at nsp14–nsp10 (6.3 µM compound); 0.31 °C on nsp14–nsp10 (12.5 µM compound); 1.33 °C on nsp14–nsp10 (25 µM compound); 0.36 °C on nsp14–nsp10 (50 µM compound).
With `[Mg]` [magnesium], the “effect on RNase activity of nsp14–nsp10” value in experiment [1] (setting [5]) was “promoted the RNase activity”.
Take `CCN(CC)C(=S)SSC(=S)N(CC)CC` [disulfiram, reference compound]: the thermal shift (ΔTm) at nsp14–nsp10 (3.1 µM compound) was -0.53 °C; on nsp14–nsp10 (6.3 µM compound), -0.58 °C; at nsp14–nsp10 (12.5 µM compound), -0.13 °C; on nsp14–nsp10 (25 µM compound) it was -0.42 °C; on nsp14–nsp10 (50 µM compound) it was -0.40 °C; on nsp14–nsp10 (100 µM compound), 0.33 °C.
Turning to `Cc1nnc(C(=O)NC(C)(C)c2nc(C(=O)NCc3ccc(F)cc3)c(O)c(=O)n2C)o1` [raltegravir, reference compound], the concentration for half-maximal inhibition (IC50) in experiment [2] stood at 24.4 ± 2.7 µM. Also, in the experiment on SARS-CoV-2, the “antiviral activity in cell-based assays” value was “did not”.
Regarding `O=C(O)CN(CCOCCOCCN(CC(=O)O)CC(=O)O)CC(=O)O` [EGTA, ethylene glycol-bis (b-aminoethyl ether)-N,N,N’,N’-tetraacetic acid, reference compound], the “effect on RNase activity of nsp14–nsp10” value in experiment [1] (setting [5]) was “inhibitory”.
In the case of `CN(C)C(=S)SSC(=S)N(C)C` [thiram, reference compound], the concentration for half-maximal inhibition (IC50) in experiment [2] was found to be 48.2 ± 1.8 µM. Besides, the Level of inhibition result in experiment [2] (setting [6]) is on record as “Yes”. In addition, the ΔTm on nsp14–nsp10 (3.1 µM compound) is -0.53 °C; on nsp14–nsp10 (6.3 µM compound), -0.46 °C; at nsp14–nsp10 (12.5 µM compound) it was -0.22 °C; on nsp14–nsp10 (25 µM compound), -0.42 °C; on nsp14–nsp10 (50 µM compound), -0.43 °C; at nsp14–nsp10 (100 µM compound), -0.21 °C.
In turn, `O=c1c2ccccc2n(Cc2ccccc2)c(=O)n1O` [A-4] registered an IC50 in experiment [2] of 94.1 ± 27 µM. Moreover, the Level of inhibition result in experiment [2] (setting [6]) is given as “Yes”. In addition, the ΔTm is -0.06 °C on nsp14–nsp10 (3.1 µM compound); 0.11 °C on nsp14–nsp10 (6.3 µM compound); 0.27 °C at nsp14–nsp10 (12.5 µM compound); -1.33 °C at nsp14–nsp10 (25 µM compound); 0.35 °C at nsp14–nsp10 (50 µM compound); 0.62 °C on nsp14–nsp10 (100 µM compound).
The molecule `O=C(O)c1nc(-c2ccccc2)nc(O)c1O` [B-1, 5,6-Dihydroxyl-2-phenylpyrimidine-4-carboxylic acid] showed an IC50 in experiment [2] of 32.2 ± 4.5 µM. Further, the Level of inhibition result in experiment [2] (setting [6]) is recorded as “Yes”. Further, the “inhibition of nuclease activity in presence of nsp8” value (shortened to “inhibition of nuclease activity”) in experiment [3] is listed as “inhibition was still observed, albeit at higher inhibitor concentrations”. The thermal shift (ΔTm) at nsp14–nsp10 (3.1 µM compound) is -0.15 °C; at nsp14–nsp10 (6.3 µM compound), 0.02 °C; at nsp14–nsp10 (12.5 µM compound), 0.08 °C; at nsp14–nsp10 (25 µM compound), -0.57 °C; at nsp14–nsp10 (50 µM compound) it was 0.23 °C; at nsp14–nsp10 (100 µM compound), 0.46 °C. The “MTase inhibition” value in experiment [4] was “demonstrated MTase inhibition activity; also recorded: most potent compound”.
Turning to `Cc1ccc(-n2sc3ccccc3c2=O)cc1` [PBIT, reference compound], the IC50 value result in experiment [2] is “IC50 not reached under assay conditions”.
Consider `O=C(O)C1=CC(=C(c2ccc(O)c(C(=O)O)c2)c2ccc(O)c(C(=O)O)c2)C=CC1=O` [ATA, Aurintricarboxylic acid, reference compound], for which the Level of inhibition result in experiment [2] (setting [6]) is “Yes”. Moreover, the shift in melting temperature (ΔTm) was 0.33 °C on nsp14–nsp10 (3.1 µM compound), 0.27 °C at nsp14–nsp10 (6.3 µM compound), 0.85 °C on nsp14–nsp10 (12.5 µM compound) and 3.08 °C at nsp14–nsp10 (25 µM compound). For the same molecule, the figures for the “effect on thermal stability / aggregation of nsp14–nsp10 (words)” value at nsp14–nsp10 and on nsp14–nsp10 (listed as aurintricarboxylic acid) were “destabilizing effect on thermal stability of nsp14–nsp10” and “appears to aggregate the protein at high concentration”, respectively.
For the molecule `c1cnc2c(c1)ccc1cccnc12` [o-phenanthroline, reference compound], in experiment [1] (setting [5]), the “effect on RNase activity of nsp14–nsp10” value was “inhibitory”.
As to `[Cl-].[Cl-].[Zn+2]` [zinc], in experiment [1], the “effect on RNase activity of nsp14–nsp10” value is listed as “inhibitory”.
As to `COc1cc2c3c(cccc3c1)C(=O)N(O)C2=O` [A-2], in experiment [2], 20.7 ± 0.5 µM corresponded to half-maximal inhibition (IC50). Further, in experiment [2], the “inhibition of substrate digestion in gel-based assay” value is on record as “qualitatively complete inhibition of substrate digestion”. The Level of inhibition entry in experiment [2] (setting [6]) is given as “Yes”. Besides, the “inhibition of nuclease activity” value in experiment [3] is given as “inhibition was still observed, albeit at higher inhibitor concentrations”. Besides, the ΔTm worked out at 0.01 °C at nsp14–nsp10 (3.1 µM compound); 0.26 °C on nsp14–nsp10 (6.3 µM compound); 0.22 °C on nsp14–nsp10 (12.5 µM compound); 0.21 °C at nsp14–nsp10 (25 µM compound); 0.36 °C at nsp14–nsp10 (50 µM compound). The “MTase inhibition” value in experiment [4] is reported as “demonstrated MTase inhibition activity”.
As to `O=c1c2ccccc2[se]n1-c1ccccc1` [ebselen, reference compound], in experiment [2], the Level of inhibition entry was “Yes”. For the same molecule, in experiment [3], the “inhibition of nuclease activity” value is “inhibition was still observed, albeit at higher inhibitor concentrations”. In addition, in experiment [4], the “MTase inhibition” value was “demonstrated MTase inhibition activity”. Besides, in the experiment on SARS-CoV-2, the “antiviral activity in cell-based assays” value was “exhibited antiviral activity in cell-based assays”.
For `[Mn+2]` [manganese], the “effect on RNase activity of nsp14–nsp10” value in experiment [1] is “promoted the RNase activity”.
Consider `O=c1c2ccccc2[nH]c(=S)n1O` [A-5, 3-Hydroxy-2-thioxo-2,3-dihydroquinazolin-4-one], for which, in experiment [2], the IC50 value result is “incomplete inhibition”. Moreover, the shift in melting temperature (ΔTm) was 0.00 °C on nsp14–nsp10 (3.1 µM compound); 0.24 °C on nsp14–nsp10 (6.3 µM compound); 0.19 °C on nsp14–nsp10 (12.5 µM compound); 0.00 °C at nsp14–nsp10 (25 µM compound); 0.38 °C at nsp14–nsp10 (50 µM compound); 0.61 °C on nsp14–nsp10 (100 µM compound).
On to `COc1ccc2c3c(cccc13)C(=O)N(O)C2=O` [A-1], for which the “inhibition of substrate digestion in gel-based assay” value in experiment [2] is on record as “qualitatively complete inhibition of substrate digestion”. For the same molecule, the ΔTm on nsp14–nsp10 (3.1 µM compound) is 0.02 °C; on nsp14–nsp10 (6.3 µM compound) it was 0.31 °C; on nsp14–nsp10 (12.5 µM compound) it was 0.25 °C; at nsp14–nsp10 (25 µM compound), 0.17 °C; at nsp14–nsp10 (50 µM compound) it was 0.29 °C; at nsp14–nsp10 (100 µM compound), 0.60 °C.
